Active and inactive are the calls of the source.
Columns and labels:
[1] = molecular target: T1, Sentrin-specific protease 7 (Homo sapiens, UniProt Q9BQF6); assay type: functional;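 note: Luminescence-based dose-response confirmation of ultra-high-throughput screening hits, measuring inhibition of SENP7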
T1 sequence (Q9BQF6 whole entry): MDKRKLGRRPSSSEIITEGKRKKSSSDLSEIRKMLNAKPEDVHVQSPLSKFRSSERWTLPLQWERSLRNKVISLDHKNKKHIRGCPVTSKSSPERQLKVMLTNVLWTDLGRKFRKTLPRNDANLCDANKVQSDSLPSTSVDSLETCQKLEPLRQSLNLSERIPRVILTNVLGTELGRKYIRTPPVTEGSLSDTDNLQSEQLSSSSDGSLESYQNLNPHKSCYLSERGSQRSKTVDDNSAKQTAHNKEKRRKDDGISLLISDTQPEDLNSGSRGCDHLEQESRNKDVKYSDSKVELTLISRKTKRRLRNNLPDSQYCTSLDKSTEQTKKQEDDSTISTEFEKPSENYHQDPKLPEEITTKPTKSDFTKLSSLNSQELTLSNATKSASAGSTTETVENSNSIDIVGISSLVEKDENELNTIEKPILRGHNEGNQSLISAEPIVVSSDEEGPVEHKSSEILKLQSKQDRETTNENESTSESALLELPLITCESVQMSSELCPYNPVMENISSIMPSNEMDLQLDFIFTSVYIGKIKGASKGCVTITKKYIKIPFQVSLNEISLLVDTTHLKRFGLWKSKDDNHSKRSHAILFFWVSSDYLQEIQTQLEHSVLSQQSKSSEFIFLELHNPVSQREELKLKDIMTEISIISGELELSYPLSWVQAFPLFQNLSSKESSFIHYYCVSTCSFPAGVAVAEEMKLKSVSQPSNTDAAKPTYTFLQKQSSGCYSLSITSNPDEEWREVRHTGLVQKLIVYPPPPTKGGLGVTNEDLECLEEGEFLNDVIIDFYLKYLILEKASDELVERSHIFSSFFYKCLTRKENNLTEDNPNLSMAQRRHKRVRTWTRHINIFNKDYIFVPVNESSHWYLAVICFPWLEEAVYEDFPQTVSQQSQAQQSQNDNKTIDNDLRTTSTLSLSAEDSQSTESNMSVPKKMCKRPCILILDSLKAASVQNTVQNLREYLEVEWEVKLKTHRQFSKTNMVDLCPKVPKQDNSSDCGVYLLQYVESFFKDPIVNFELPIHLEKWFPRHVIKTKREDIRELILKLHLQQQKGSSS

Caspase-3 = molecular target: T2, Caspase-3 (Homo sapiens, UniProt P42574); assay type: functional;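 note: Dose-response selectivity test against caspase-3 for candidate inhibitors of sentrin-specific proteases (SENPs)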
T2 sequence (P42574 whole entry): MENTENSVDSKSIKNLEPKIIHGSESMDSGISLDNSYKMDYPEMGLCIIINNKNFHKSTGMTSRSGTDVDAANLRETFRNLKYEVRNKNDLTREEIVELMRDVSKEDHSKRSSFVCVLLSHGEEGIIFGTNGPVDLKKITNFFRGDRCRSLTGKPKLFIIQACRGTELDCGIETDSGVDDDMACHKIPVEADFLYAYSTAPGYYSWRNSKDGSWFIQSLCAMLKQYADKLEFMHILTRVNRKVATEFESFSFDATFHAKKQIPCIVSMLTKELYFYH

[2] = molecular target: T3, Sentrin-specific protease 8 (Homo sapiens, UniProt Q96LD8); assay type: functional;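 note: luminescence read-out of SENP8 inhibition, dose-response confirmation following an ultra-high-throughput screen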
T3 sequence (Q96LD8 whole entry): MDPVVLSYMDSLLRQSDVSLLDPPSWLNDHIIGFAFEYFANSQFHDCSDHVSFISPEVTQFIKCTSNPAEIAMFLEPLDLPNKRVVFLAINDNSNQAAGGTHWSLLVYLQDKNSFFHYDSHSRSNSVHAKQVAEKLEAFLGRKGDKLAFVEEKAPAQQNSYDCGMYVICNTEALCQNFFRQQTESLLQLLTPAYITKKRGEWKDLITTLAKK

[3] = molecular target: T4, Sentrin-specific protease 6 (Homo sapiens, UniProt Q9GZR1); assay type: functional;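 note: Luminescence-based dose-response confirmatory assay of SENP6 inhibition, following up an ultra-high-throughput screen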
T4 sequence (Q9GZR1 whole entry): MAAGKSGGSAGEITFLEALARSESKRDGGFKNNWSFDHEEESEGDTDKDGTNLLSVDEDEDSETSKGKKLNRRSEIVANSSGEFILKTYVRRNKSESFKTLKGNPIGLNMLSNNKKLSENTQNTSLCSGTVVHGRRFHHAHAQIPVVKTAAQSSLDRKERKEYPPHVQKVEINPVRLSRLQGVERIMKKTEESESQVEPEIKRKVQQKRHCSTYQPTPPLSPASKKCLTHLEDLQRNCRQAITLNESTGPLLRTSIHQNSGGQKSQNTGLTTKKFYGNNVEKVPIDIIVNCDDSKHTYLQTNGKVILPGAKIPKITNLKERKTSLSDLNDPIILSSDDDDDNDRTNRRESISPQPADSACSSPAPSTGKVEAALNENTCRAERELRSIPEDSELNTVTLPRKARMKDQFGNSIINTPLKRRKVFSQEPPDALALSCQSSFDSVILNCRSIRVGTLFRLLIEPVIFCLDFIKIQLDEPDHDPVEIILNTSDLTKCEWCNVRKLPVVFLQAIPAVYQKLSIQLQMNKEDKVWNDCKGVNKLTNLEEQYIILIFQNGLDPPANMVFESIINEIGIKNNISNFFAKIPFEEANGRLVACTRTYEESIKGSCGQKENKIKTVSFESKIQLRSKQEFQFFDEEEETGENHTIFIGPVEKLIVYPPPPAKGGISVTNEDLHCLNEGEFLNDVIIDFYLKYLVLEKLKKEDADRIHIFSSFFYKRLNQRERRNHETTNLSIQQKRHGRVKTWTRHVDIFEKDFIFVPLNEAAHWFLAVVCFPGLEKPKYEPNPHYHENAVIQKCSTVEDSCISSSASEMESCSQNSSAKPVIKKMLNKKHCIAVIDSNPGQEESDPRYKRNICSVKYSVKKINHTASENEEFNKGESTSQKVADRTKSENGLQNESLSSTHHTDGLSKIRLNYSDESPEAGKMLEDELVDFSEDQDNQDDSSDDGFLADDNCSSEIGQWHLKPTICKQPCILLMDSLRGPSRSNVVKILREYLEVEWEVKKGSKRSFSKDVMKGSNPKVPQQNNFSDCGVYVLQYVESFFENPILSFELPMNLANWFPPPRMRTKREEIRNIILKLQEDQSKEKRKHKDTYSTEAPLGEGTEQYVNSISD

Caspase-6 = molecular target: T5, Caspase-6 (Homo sapiens, UniProt P55212); assay: human caspase-6 inhibitors, dose response, biochemical, VEID-R110 fluorescence, cherry-pick (AID 720632)
T5 sequence (P55212 whole entry): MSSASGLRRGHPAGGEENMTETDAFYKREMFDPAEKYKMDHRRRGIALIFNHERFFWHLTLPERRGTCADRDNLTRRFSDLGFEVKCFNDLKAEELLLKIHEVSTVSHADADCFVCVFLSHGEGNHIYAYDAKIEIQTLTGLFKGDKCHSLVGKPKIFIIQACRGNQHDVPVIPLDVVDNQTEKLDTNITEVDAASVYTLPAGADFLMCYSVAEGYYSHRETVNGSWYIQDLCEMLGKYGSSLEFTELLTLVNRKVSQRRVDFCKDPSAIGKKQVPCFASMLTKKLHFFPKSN

[4] = molecular target: T6, Carboxy-terminal domain RNA polymerase II polypeptide A small phosphatase 1 (Homo sapiens, UniProt Q9GZU7); assay: inhibitors of CTDSP1, concentration-response testing, biochemical assay, absorbance-based, actives from ultra-high-throughput screening (AID 540297); assay type: functional
T6 sequence (Q9GZU7 whole entry): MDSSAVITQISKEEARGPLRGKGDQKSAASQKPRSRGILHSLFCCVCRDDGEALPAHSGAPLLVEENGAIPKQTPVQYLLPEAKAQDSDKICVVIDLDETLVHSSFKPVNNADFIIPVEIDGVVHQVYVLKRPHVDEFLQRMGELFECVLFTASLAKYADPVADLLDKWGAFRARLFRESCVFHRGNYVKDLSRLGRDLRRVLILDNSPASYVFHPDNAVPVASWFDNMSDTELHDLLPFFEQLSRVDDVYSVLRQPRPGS

Large T antigen = Large T antigen (Simian virus 40, UniProt P03070); assay type: functional, Betapolyomavirus macacae;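 note: Confirmatory-stage PubChem screen for compounds that inhibit SV40 T antigen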
Chain of Large T antigen (P03070 whole entry): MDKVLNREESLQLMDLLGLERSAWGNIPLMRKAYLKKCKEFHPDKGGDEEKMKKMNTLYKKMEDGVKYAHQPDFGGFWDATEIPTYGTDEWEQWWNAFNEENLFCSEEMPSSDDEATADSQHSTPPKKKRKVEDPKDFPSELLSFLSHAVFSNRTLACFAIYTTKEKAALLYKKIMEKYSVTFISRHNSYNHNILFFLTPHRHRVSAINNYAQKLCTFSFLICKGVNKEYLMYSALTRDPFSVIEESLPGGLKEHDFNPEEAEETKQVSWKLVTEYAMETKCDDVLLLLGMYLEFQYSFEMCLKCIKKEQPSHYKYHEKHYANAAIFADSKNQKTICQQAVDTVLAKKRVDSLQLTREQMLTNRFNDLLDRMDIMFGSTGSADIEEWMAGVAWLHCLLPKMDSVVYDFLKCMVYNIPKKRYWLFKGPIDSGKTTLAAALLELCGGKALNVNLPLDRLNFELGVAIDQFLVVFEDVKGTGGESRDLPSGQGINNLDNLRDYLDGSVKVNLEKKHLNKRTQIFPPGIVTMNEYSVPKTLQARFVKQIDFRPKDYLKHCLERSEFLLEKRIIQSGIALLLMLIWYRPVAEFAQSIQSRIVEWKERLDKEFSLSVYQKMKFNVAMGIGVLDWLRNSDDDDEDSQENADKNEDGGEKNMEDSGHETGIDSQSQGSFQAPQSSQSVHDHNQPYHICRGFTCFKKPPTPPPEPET

[5] = HeLa cell cytotoxicity, dose response, cytotoxicity control for MgcRacGAP inhibitor project (AID 624300); assay type: functional
[6] = molecular target: T7, Rac GTPase-activating protein 1 (Homo sapiens, UniProt Q9H0H5); assay: MgcRacGAP GTPase-activating activity inhibitors, confirmation, biochemical, ADP Hunter fluorescence, primary and confirmatory (AID 624330); assay type: functional
T7 sequence (Q9H0H5 whole entry): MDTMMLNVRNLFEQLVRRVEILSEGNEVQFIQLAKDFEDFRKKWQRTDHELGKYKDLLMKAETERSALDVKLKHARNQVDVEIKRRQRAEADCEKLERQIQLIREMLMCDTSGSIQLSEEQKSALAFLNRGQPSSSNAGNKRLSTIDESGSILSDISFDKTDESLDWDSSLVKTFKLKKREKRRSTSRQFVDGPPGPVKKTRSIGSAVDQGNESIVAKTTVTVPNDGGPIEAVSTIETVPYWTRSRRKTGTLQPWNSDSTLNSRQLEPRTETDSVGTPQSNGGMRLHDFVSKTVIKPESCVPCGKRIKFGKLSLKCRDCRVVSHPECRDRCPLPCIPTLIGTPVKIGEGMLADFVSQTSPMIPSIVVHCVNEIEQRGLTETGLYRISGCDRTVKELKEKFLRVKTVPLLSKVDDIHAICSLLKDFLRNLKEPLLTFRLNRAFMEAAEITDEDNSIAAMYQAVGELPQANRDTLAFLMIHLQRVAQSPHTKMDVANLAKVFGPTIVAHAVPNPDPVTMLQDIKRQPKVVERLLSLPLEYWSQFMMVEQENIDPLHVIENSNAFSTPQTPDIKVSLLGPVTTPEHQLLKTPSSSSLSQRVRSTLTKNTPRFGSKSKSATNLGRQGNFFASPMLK

Streptococcus = assay: Group A Streptococcus viability loss, dose response, counter-screen for streptokinase expression inhibitor project, luminescence, BacTiterGlo (AID 1915); assay type: functional, organism-based;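 note: potency for reduction of bacterial viability or growth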
[7] = molecular target: FAD-linked sulfhydryl oxidase ALR (Homo sapiens, UniProt P55789); assay: inhibitors of human ALR sulfhydryl oxidase, dose response, biochemical, H2O2 detection, luminescence, cherry-pick (AID 493248)
Chain of FAD-linked sulfhydryl oxidase ALR (P55789 whole entry): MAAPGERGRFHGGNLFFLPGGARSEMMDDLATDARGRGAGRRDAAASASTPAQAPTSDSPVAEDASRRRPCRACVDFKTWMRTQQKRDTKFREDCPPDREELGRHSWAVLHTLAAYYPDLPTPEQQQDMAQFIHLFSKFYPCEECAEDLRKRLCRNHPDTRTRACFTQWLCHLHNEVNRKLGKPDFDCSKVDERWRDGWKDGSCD

Streptokinase A = molecular target: T8, Streptokinase A (Streptococcus pyogenes serotype M1, UniProt P10520); assay: S. pyogenes streptokinase expression inhibitors, potency, dose response, plasminogen activation absorbance, OD405 (AID 1914); assay type: functional, Streptococcus pyogenes M1 GAS;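 note: secreted streptokinase activity via plasminogen activation per viability signal from cell pellet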
T8 sequence (P10520 whole entry): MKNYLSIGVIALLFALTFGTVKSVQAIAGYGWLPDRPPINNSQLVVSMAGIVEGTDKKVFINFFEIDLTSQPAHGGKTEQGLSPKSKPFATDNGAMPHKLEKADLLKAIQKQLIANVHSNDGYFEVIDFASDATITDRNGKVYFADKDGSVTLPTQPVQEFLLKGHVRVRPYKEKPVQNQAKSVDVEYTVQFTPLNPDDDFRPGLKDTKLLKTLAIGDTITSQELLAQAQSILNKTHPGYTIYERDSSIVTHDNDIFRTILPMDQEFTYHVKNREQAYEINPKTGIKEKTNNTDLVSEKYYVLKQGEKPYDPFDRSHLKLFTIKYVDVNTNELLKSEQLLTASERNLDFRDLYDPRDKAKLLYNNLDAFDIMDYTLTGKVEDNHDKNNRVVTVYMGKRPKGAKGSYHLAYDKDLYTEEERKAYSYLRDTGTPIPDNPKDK

[8] = test system: Streptococcus sp. 'group A'; assay: growth inhibition of control SK(-) GAS strain, dose response, counter-screen for streptokinase expression inhibitor project, luminescence, kanamycin, BacTiterGlo, confirmation (AID 1900); assay type: functional, organism-based
Paired box protein Pax-8 = Paired box protein Pax-8 (Homo sapiens, UniProt Q06710); assay: inhibitors of PAX8-driven TPO luciferase reporter, dose response, RMG-I cells, cherry-pick (AID 687027); assay type: functional, cell-based;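 note: luciferase reporter driven by Pax8 target thyroperoxidase promoter measured by SteadyGlo luminescence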
Chain of Paired box protein Pax-8 (Q06710 whole entry): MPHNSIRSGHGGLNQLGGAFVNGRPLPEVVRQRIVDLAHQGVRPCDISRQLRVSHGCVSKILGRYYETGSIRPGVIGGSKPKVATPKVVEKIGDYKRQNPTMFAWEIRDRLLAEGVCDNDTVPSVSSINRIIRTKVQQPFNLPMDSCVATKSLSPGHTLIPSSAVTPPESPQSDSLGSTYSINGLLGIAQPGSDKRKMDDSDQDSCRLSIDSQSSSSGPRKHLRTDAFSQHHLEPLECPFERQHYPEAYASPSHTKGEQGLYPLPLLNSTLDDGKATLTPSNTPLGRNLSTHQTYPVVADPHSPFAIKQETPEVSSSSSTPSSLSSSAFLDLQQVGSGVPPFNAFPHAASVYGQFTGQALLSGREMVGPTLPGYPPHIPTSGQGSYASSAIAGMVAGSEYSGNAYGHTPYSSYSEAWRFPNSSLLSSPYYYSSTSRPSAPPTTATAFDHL

[9] = NIH:OVCAR-3 ovarian cancer cell cytotoxicity, dose response, PAX8 inhibitor project, plate reader, dry powder samples (AID 743044); assay type: functional, cell-based
[10] = IGROV1 ovarian cancer cell cytotoxicity, dose response, PAX8 inhibitor project, plate reader, dry powder samples (AID 743043); assay type: functional, cell-based; conditions: IGROV-1
[11] = cytotoxicity in OVCAR8 ovarian cancer cells, dose response, PAX8 project, cell-based, plate reader, dry powder samples (AID 743197); assay type: functional; conditions: OVCAR-8

In the case of `c1ccc(Nc2ncnc3c2oc2ccccc23)cc1`, the IC50 [1] is reported as 11.9 µM (active), the IC50 (Caspase-3) is reported as 31.3 µM (active) and the IC50 [2] is reported as > 100 µM (inactive). The IC50 [3] was > 100 µM (inactive).
In the case of `O=C(Nc1cccnc1Cl)c1ccc(=O)oc1`, the AC50 (Caspase-6) is reported as 22 µM (active) and the IC50 [4] is reported as 17.8 µM (active).
For `Cn1cnnc1SCC(=O)Nc1ncc([N+](=O)[O-])s1`, the AC50 (Caspase-6) was 3.04 µM (active).
For `CCO/C=C1/C(=O)N(c2ccc(OC)cc2)C(=O)c2ccccc21`, the IC50 [1] was 25.8 µM (active), the IC50 (Caspase-3) was 7.36 µM (active) and the IC50 [2] was 11.6 µM (active). For the same compound, the IC50 [3] was 8.55 µM (active).
With `Cc1ccc(C2=NOC(=O)/C2=C\c2ccc(C)o2)cc1` the IC50 (Large T antigen) was 78.1 µM (active), the CC50 [5] was 100 µM (active) and the IC50 [6] was 44.8 µM (active).
With `COc1cc(/C=N/NC(=O)c2cc(-c3c(C)nn(-c4ccccc4)c3C)[nH]n2)ccc1O` the EC50 (Streptococcus) was 4.37 µM (active), the AC50 [7] was 0.105 µM (active) and the CC50 [5] was 90 µM (active). For the same compound, the EC50 (Streptokinase A) was 43.9 µM (inconclusive), the EC50 [8] was 4.04 µM (active) and the IC50 [6] was 39.1 µM (active).
For `COc1ccc(S(=O)(=O)N(C)C[C@@H]2OCCCC[C@H](C)Oc3ccc(NS(=O)(=O)c4ccccc4)cc3C(=O)N([C@H](C)CO)C[C@H]2C)cc1`, the AC50 (Paired box protein Pax-8) was 5.15 µM (active), the AC50 [9] was 28.2 µM (active) and the AC50 [10] was 43.2 µM (active). For the same compound, the AC50 [11] was > 70 µM (inactive).
With `COc1cc(-c2cc(-c3ccc(O)cc3)nc(N)c2C#N)ccc1O` the CC50 [5] was 100 µM (active) and the IC50 [6] was 34.7 µM (active).

From ChEMBL document CHEMBL1201862, “PubChem BioAssay data set” (2004)
